Where a SMILES comes first, the peptide text is derived from it. [ ]: non-standard residue; d: D form.
Key:
[1] = tested on: CD40-TRAF2,3 signaling; experiment: NF-κB luciferase reporter assay in mHEVc expressing hmCD40 ΔT6 (signals through the TRAF2,3 binding site); type: cell-based, mouse; conditions: 1 μM, 3 hr pre-incubation, hmCD40 ΔT6 cells; P<0.01
Description: Mouse endothelial cells (mHEVc) that express an NF-κB response element that drives transcription of a luciferase reporter plus either hmCD40 ΔT2,3 or hmCD40 ΔT6 were pre-incubated with ri control peptide (Ctr P) or ri CD40-TRAF2,3 blocking peptide (T2,3 BP; both at 1 μM) or medium alone followed by stimulation with human CD154. Data are expressed as fold-increase in normalized luciferase activity in cells stimulated with CD154 compared to cells treated with respective peptide in the absence of CD154. Data shown represent Mean±SD. Results are representative of 2 independent experiments. **P<0.01.
Peptides were tested as described using the mouse endothelial cells mHEVc that expresses a chimera of the extracellular domain of human CD40 and intracytoplasmic domain of mouse CD40 (hmCD40) with either a mutation that prevents recruitment of TRAF2,3 (hmCD40 ΔT2,3) or TRAF6 (hmCD40 ΔT6). These cells were transfected with pGL4.32luc2P/NF-κB-RE/Hygro vector (Promega Corporation, Madison, WI) encoding an NF-κB response element that drives the luciferase reporter gene luc2P (Photinus pyralis). Cells were pre-incubated with peptides for 3 hr. followed by stimulation with human CD154. Luciferase activity was assessed using a Steady-Glo luciferase assay system (Promega Corporation) and a luminometer. The effects of peptides on cell viability were examined using alamarBlue cell viability assay. […]

[2] = tested on: human Müller cells; type: cell-based
Description: (§1) Peptide consisted of the TRAF2,3 binding site of CD40 that was made cell permeable by linking them to the TAT47-57 cell penetrating peptide. Peptides were synthesized using D-amino acids following reverse amino acid sequence (ri format). The sequences for the CD40-TRAF2,3 blocking peptide was —NH2-rrrqrrkkrgy ghlteqvhaatn-OH (SEQ ID NO: 49). The TAT47-57 sequence is underlined. The peptide contains a proline (p) to histidine (h) substitution (shown in italics) that enhances affinity to TRAF2. Control (scrambled) peptide consisted of NH2-rrrqrrkkrgy ntqalahtgevh-OH (SEQ ID NO: 50). The blocking peptide was also synthesized with Alexa Fluor 488 conjugated via maleimide coupling to an additional Cys in the N terminus. Peptides were manufactured by Biopeptide Co. (San Diego, CA) and were low in endotoxin and >98% pure by HPLC. Peptides were used at 1 μM in vitro experiments and 1 μg for in vivo studies unless otherwise stated. Peptides were not toxic to human Müller and retinal endothelial cells as assessed by alamarBlue cell viability assay (Invitrogen Corporation).
(§2) Primary human retinal endothelial cells were obtained as described (9) and cultured in complete medium supplemented with endothelial cell growth supplement from bovine pituitary (15 μg/ml; Sigma Chemical, St Louis, MO) and insulin/transferrin/selenium (Sigma Chemical). Cell identity was confirmed by incorporation of acetylated low-density lipoprotein (>90%). Endothelial cells were used between passages 3 to 6. The human Müller cell line MIO M1 (gift from Dr. Gloria Limb; University College London, UK; >95% vimentin^+, CRALBP^+ and GFAP^−) was also used. Endothelial cells were incubated with multimeric human CD154 to induce CD40 stimulation (obtained from Dr. Richard Kornbluth, Multimeric Biotherapeutics Inc., La Jolla, CA) or with a non-functional CD154 mutant (T147N) as control.
(§3) Peptides were tested as described using the mouse endothelial cells mHEVc that expresses a chimera of the extracellular domain of human CD40 and intracytoplasmic domain of mouse CD40 (hmCD40) with either a mutation that prevents recruitment of TRAF2,3 (hmCD40 ΔT2,3) or TRAF6 (hmCD40 ΔT6). These cells were transfected with pGL4.32luc2P/NF-κB-RE/Hygro vector (Promega Corporation, Madison, WI) encoding an NF-κB response element that drives the luciferase reporter gene luc2P (Photinus pyralis). Cells were pre-incubated with peptides for 3 hr. followed by stimulation with human CD154. Luciferase activity was assessed using a Steady-Glo luciferase assay system (Promega Corporation) and a luminometer. The effects of peptides on cell viability were examined using alamarBlue cell viability assay.

[3] = tested on: human retinal endothelial cells; type: cell-based
Description: as §1, §2, §3

NF-κB activity (luciferase) after human CD154 [1]: inhibited NF-κB activity
SMILES: CC(C)C[C@@H](NC(=O)[C@@H](Cc1c[nH]cn1)NC(=O)CNC(=O)[C@@H](Cc1ccc(O)cc1)NC(=O)CNC(=O)[C@@H](CCCNC(=N)N)NC(=O)[C@@H](CCCCN)NC(=O)[C@@H](CCCCN)NC(=O)[C@@H](CCCNC(=N)N)NC(=O)[C@@H](CCCNC(=N)N)NC(=O)[C@@H](CCC(N)=O)NC(=O)[C@@H](CCCNC(=N)N)NC(=O)[C@@H](CCCNC(=N)N)NC(=O)[C@H](N)CCCNC(=N)N)C(=O)N[C@@H](C(=O)N[C@H](CCC(=O)O)C(=O)N[C@H](CCC(N)=O)C(=O)N[C@@H](C(=O)N[C@H](Cc1c[nH]cn1)C(=O)N[C@H](C)C(=O)N[C@H](C)C(=O)N[C@@H](C(=O)N[C@H](CC(N)=O)C(=O)O)[C@H](C)O)C(C)C)[C@H](C)O [ri CD40-TRAF2,3 blocking peptide, NH2-rrrqrrkkrgy ghlteqvhaatn-OH] (H-[dR][dR][dR][dQ][dR][dR][dK][dK][dR]G[dY]G[dH][dL][dT][dE][dQ][dV][dH][dA][dA][dT][dN]-OH)
toxicity (alamarBlue cell viability assay) [2]: not toxic
toxicity (alamarBlue cell viability assay) [3]: not toxic
